{
  "source": "patent US20110124888A1",
  "about": "“STYRYLBENZOFURAN DERIVATIVES AS INHIBITORS FOR BETA-AMYLOID FIBRIL FORMATION AND PREPARATION METHOD THEREOF” (Korea Institute of Science and Technology, priority 2008, published 2011)",
  "key": {"[1]": {"assay": "Passage test through the blood-brain barrier in mice (brain tissue)", "type": "in vivo, ICR mice", "settings": "for Kp / Tmax: mouse; for Kp: brain; for Tmax / Cmax (brain): brain tissue", "procedure": "1) Test Animal and Administration of Test Compound\nThree 7 week-old ICR mice (weight: about 30 g) and three 8 week-old SD rats (weight: about 250 g) were used per test group. A solution prepared by dissolving the compounds of Examples 9 and 17 in excipient (DMSO/Tween 20/saline: 0.1/0.6/2.3, v/v/v) were administered to each experimental animal. The test compound was orally administered in an amount of 10 mL per kg of body weight or intravenously administered in an amount of 5 mL per kg of body weight through the fine vein.\n2) Measurement of Concentration in Blood and Tissue (Simultaneous Test)\nAt 30 min, 1 hr, 2 hr, 4 hr, 10 hr and 24 hr after administration of test compound, the mice and rats were subjected to insufflations narcosis using isoflorane, followed by cutting the abdomen open. 1 mL of blood was collected from abdominal veins into the tube containing heparin (1000 IU/mL, 3 μl). The obtained blood sample was centrifuged at 12,000 rpm, for 2 min to obtain plasma. The obtained plasma was kept in freezer at −80° C. until the analysis.\n(2) Organ Tissue-Sampling\nThe mice and rats from which the blood sample was obtained were subjected to bloodletting, and then, brain tissue of the mice and rats was collected. The brain tissue thus obtained was washed with physiological saline once or twice to remove blood. The weight of the brain tissue was measured after the removal of adipose tissue and peripheral tissue. 4% bovine serum albumin (BSA) solution diluted with 10-fold was added to the brain tissue. The resulting solution was subjected to homogenization using the homogenizer. The diluted homogenate thus obtained was placed in 2 ml of tube and was kept in freezer at −80° C. until the analysis. All of the treatments to the samples were performed in ice.\nThe sample was analyzed using LC/MSMS system under the following condition:\nThe sample was pretreated as follows:\n50 μL of plasma were placed in 2.0 mL of tube having a cap (Eppendorf Co.) and acidified by adding 20 μL of 0.1% formic acid thereto. An internal standard solution and 1 mL of ethyl acetate as an extract solvent were added to the resultant solution. The resultant solution was mixed using thermomixer (Eppendorf Co.) at 1400 rpm for 5 min and then subjected to centrifuge (Eppendorf Co.). The supernatant was collected and concentrated at 35° C. using cyclone. The residue was re-dissolved in 50 μL of moblie phase and 5 μL of the resulting solution was injected into LC/MS and analyzed.\nIn Tables 8 and 9, “iv” refers to a intravenous injection; “po” refers to a per oral; “AUC plasma” refers to an area under the plasma level-time curve; “Cmax” refers to a maximum plasma concentration; “Tmax” refers to a time to reach Cmax, “BA” refers to a bioavailability (%) according to Equation 2 below; “AUC Brain” refers to a area under the brain tissue level-time curve; and “AUCBrain/AUCPlasma” refers to a passage rate of the test compound to the brain."}, "[2]": {"tested_on": "transgenic double tg mice (APPswe, PSEN1 dE9)", "assay": "In vivo fear conditioning test in transgenic mice", "settings": "for Increase rate (fold) of freezing: 5 to 12 months of age, based on the freezing (%) of Tg vehicle group", "procedure": "The tails of 3-week old mice born from Male B6C3-Tg (APPswe, PSEN1 dE9, Jackson Laboratory Co., Maine, A) and female B6C3F1 (central Lab. Animal Inc., Korea) were cut in lengths of about 0.5 cm (tail biopsy). The genomic DNAs were extracted from the tail samples and subjected to a genotype analysis to screen transgenic double tg mice.\nFrom 5 months to 12 months after the birth, the mice were administered orally with the compound of Example 9, in an amount of 30 mg/kg or 100 mg/kg every day. As a comparative compound, tramiprosate (Aisen, P. S. et. al., Curr. Alzheimer Res. 2007, 4, 473) was used, which binds to beta-amyloid protein to inhibit the deposition and cytotoxicity to the protein. The compounds were administrated.\n3) Fear Conditioning Test\nAt the First day of training, the mice were placed in a conditioning box and adjusted for 2 min. The fear conditioning was performed with a conditional stimulus (CS) of 75 dB for 20 sec, together with an electrical stimulus (unconditional stimulus (US)) of 0.5 mA for final 2 sec in the conditional stimulus period. After 1 min, the animals were transferred to a cage. After 24 hrs, the retention test was performed. The animals were placed in the same conditioning box as used above and observed for 5 min. The freezing response was measured without CS and US. The freezing response is defined in the state of the animals keeping still except for breathing."}, "[3]": {"tested_on": "congo red-positive beta-amyloid plagues", "assay": "Immunohistochemistry: congo red-positive beta-amyloid plaque count in hippocampus and cortex of transgenic mice", "type": "in vivo", "settings": "for Reduction rate (%) of beta-amyloid plaques, cortex / Reduction rate (%) of beta-amyloid plaques, hippocampus / Total reduction rate (%) of beta-amyloid plaques: vs Tg group", "procedure": "The transgenic mice were screened and drug was administered thereto as described in 1) and 2) of Experimental Example 4. The brain was separated from the transgenic mouse and fixed in 10% neutral formalin solution. A region of the brain including the hippocampus and the cortex were subjected to removal, washing, dehydration and paraffin infiltration to obtain paraffin block including the brain tissue. The paraffin block was subjected to thin section in thickness of 8 μm to obtain the sections of all regions of hippocampus. Among them, 10 sections were elected at regular intervals. They were deparaffinized, hydrated, immersed in Mayer's hematoxylin for 1 min and rinsed with tap water. The rinsed tissue was reacted in an alkaline sodium chloride solution for 20 min, after then was reacted in an alkaline congo red solution for 20 min. The resulting tissue was washed with 100% ethyl alcohol, cleared with xylene and mounted using a synthetic mounting medium. In the hippocampus and cortex regions of the tissue preparations strained with congo red, congo red-positive beta-amyloid plagues were counted."}, "beta-amyloid 42": {"target": "beta-amyloid 42 (Homo sapiens, UniProt P05067)", "sequence (P05067 672-713 limits assumed)": "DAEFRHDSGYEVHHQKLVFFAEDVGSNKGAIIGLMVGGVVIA", "assay": "Biochemical test: content of beta-amyloid 42 in hippocampus tissue of transgenic mice", "type": "in vivo", "settings": "for Reduction rate (%) of beta amyloid 42 content: hippocampus tissue, based on the content of beta amyloid 42 in the Tg group"}, "[4]": {"settings": "ICR (mice), SD (rats), mice and rats, Tables 8 and 9, read-out: passage ability through the blood-brain barrier compared with plasma"}, "[5]": {"settings": "ICR, mice, 1.25 mg/kg, iv, read-out: AUCBrain/AUC Plasma"}, "[6]": {"settings": "ICR, mice, 2.5 mg/kg, po, read-out: AUCBrain/AUC Plasma"}},
  "note": "Where two headings read alike, the source gives them in different places.",
  "data": [
    {"smiles": "COc1ccc2cc(C=Cc3ccc(N(C)C)cc3)oc2c1", "note": "[Compound 9, 6-methoxy-2-(4-dimethylaminostyryl)benzofuran]", "values": [
      {"measurement": "Kp", "setting": "[1]; [4]", "value": "≥ 1"},
      {"measurement": "Kp", "setting": "[1]; [5]", "value": 12.1},
      {"measurement": "Kp", "setting": "[1]; [6]", "value": 12.6},
      {"measurement": "Tmax", "setting": "[1]; ICR, mice, 2.5 mg/kg, po", "value": 4, "unit": "h"},
      {"measurement": "AUC Brain", "setting": "[1]; mice, 1.25 mg/kg, iv", "value": 6101.86, "unit": "ng·h/mL"},
      {"measurement": "AUC Brain", "setting": "[1]; mice, 2.5 mg/kg, po", "value": 8137.42, "unit": "ng·h/mL"},
      {"measurement": "Cmax (brain)", "setting": "[1]; mice, 2.5 mg/kg, po", "value": 899.33, "unit": "ng/mL"},
      {"measurement": "Increase rate (fold) of freezing", "setting": "[2]; 30 mg/kg orally every day", "value": 3.2, "unit": "fold"},
      {"measurement": "Increase rate (fold) of freezing", "setting": "[2]; 100 mg/kg orally every day", "value": 3.8, "unit": "fold"},
      {"measurement": "degree of memory compared with tramiprosate (in words)", "setting": "[2]; 30 and 100 mg/kg", "value": "much higher degree of memory in a dose-dependent manner"},
      {"measurement": "Reduction rate (%) of beta-amyloid plaques, cortex", "setting": "[3]; 30 mg/kg", "value": 43, "unit": "%"},
      {"measurement": "Reduction rate (%) of beta-amyloid plaques, hippocampus", "setting": "[3]; 30 mg/kg", "value": 29, "unit": "%"},
      {"measurement": "Total reduction rate (%) of beta-amyloid plaques", "setting": "[3]; 30 mg/kg", "value": 41, "unit": "%"},
      {"measurement": "Reduction rate (%) of beta-amyloid plaques, cortex", "setting": "[3]; 100 mg/kg", "value": 61, "unit": "%"},
      {"measurement": "Reduction rate (%) of beta-amyloid plaques, hippocampus", "setting": "[3]; 100 mg/kg", "value": 64, "unit": "%"},
      {"measurement": "Total reduction rate (%) of beta-amyloid plaques", "setting": "[3]; 100 mg/kg", "value": 61, "unit": "%"},
      {"measurement": "beta-amyloid deposition in stained hippocampus and cortex tissues compared with tramiprosate (in words)", "setting": "[3]; FIGS. 1 and 2", "value": "remarkably reduced beta-amyloid deposition"},
      {"measurement": "reduction rate of beta-amyloid deposition compared with tramiprosate (in words)", "setting": "[3]; Table 12, 30 and 100 mg/kg", "value": "remarkable reduction rate of beta-amyloid deposition in a dose-dependent manner"},
      {"measurement": "Reduction rate (%) of beta amyloid 42 content", "setting": "beta-amyloid 42; 30 mg/kg", "value": 41, "unit": "%"},
      {"measurement": "Reduction rate (%) of beta amyloid 42 content", "setting": "beta-amyloid 42; 100 mg/kg", "value": 48, "unit": "%"},
      {"measurement": "reduction rate of beta-amyloid plague compared with tramiprosate (in words)", "setting": "beta-amyloid 42; Table 13, 30 and 100 mg/kg", "value": "remarkable reduction rate of beta-amyloid plague in a dose-dependent manner"}
    ]},
    {"smiles": "CNc1ccc(C=Cc2cc3cc(OC)ccc3o2)cc1", "note": "[Compound 17, 5-methoxy-2-(4-methylaminostyryl)benzofuran]", "values": [
      {"measurement": "Kp", "setting": "[1]; [4]", "value": "≥ 1"},
      {"measurement": "Kp", "setting": "[1]; [5]", "value": 10.6},
      {"measurement": "Kp", "setting": "[1]; [6]", "value": 7.2},
      {"measurement": "Tmax", "setting": "[1]; ICR, mice, 2.5 mg/kg, po", "value": 2, "unit": "h"},
      {"measurement": "AUC Brain", "setting": "[1]; mice, 1.25 mg/kg, iv", "value": 2525.45, "unit": "ng·h/mL"},
      {"measurement": "AUC Brain", "setting": "[1]; mice, 2.5 mg/kg, po", "value": 2354.58, "unit": "ng·h/mL"},
      {"measurement": "Cmax (brain)", "setting": "[1]; mice, 2.5 mg/kg, po", "value": 462.67, "unit": "ng/mL"},
      {"measurement": "melting point", "value": "174 to 175", "unit": "°C"}
    ]}
  ]
}
